Read-outs that look alike come from different tables or passages of the source.
Columns and labels:
[1] = test system: Diabrotica balteata larvae; assay: Control of rootworm: greenhouse tray test on maize, soil application, larval mortality; format: in vivo; settings: 168 h, infested 7 days after application, read-out: Corr. Mortality (%) 5 DAI
Protocol: (§1) Plastic trays (13×18×11.5 cm) with 4 holes in the bottom were filled with a filter paper and 400 mL Drench soil. 8 maize seeds (2 rows with 4 seeds each) were placed on the soil. Compound solution was applied with a track-sprayer at 200 L/ha. After drying seeds were covered with 200 mL untreated Drench soil and evened. Trays were incubated in a greenhouse chamber (25° C., 50% r.h., 14 h light (>20,000 lux)) and watered daily. 7 days after application each tray was infested with 10 (3 replicates) Diabrotica balteata larvae. After infestation all trays were covered with a plastic lid, which was perforated with 6-9 holes for ventilation. 5 days after infestation the survived larvae were counted. Also assessed was the larval growth (size difference between compound replicates and control). TEFL=Tefluthrin.

Agrotis ipsilon larvae = assay: Control of cutworm: greenhouse tray test on maize, soil application, larval mortality; format: in vivo; settings: 168 h, infested 7 days after application, read-out: Corr. Mortality (%) 5 DAI
Protocol: as §1, with “(>20′000” for “(>20,000”, “5 (6” for “10 (3”, “Agrotis ipsilon” for “Diabrotica balteata”

[2] = w/15% Nachurs 6-24-6, 25 ppm AI
[3] = w/15% Nachurs 6-24-6, 100 ppm AI
[4] = w/30% Nachurs 6-24-6, 25 ppm AI
[5] = w/30% Nachurs 6-24-6, 100 ppm AI

Cc1c(F)c(F)c(COC(=O)[C@@H]2[C@H](/C=C(\Cl)C(F)(F)F)C2(C)C)c(F)c1F (racemic) [TEFL, Tefluthrin] gave a mortality at 25 ppm ([1]; no fertilizer, 25 ppm AI) of 0%, a mortality at 50 ppm ([1]; no fertilizer, 50 ppm AI) of 0% and a mortality at 100 ppm ([1]; no fertilizer, 100 ppm AI) of 18%. The mortality at 200 ppm ([1]; no fertilizer, 200 ppm AI) was 86%, the mortality at 400 ppm ([1]; no fertilizer, 400 ppm AI) was 100% and the mortality at 25 ppm [1, 2] was 4%. It also gave a mortality at 50 ppm ([1]; w/15% Nachurs 6-24-6, 50 ppm AI) of 14%, a mortality at 100 ppm [1, 3] of 71% and a mortality at 200 ppm ([1]; w/15% Nachurs 6-24-6, 200 ppm AI) of 100%. For the same compound, the mortality at 400 ppm ([1]; w/15% Nachurs 6-24-6, 400 ppm AI) was 96%, the mortality at 25 ppm [1, 4] was 4% and the mortality at 50 ppm ([1]; w/30% Nachurs 6-24-6, 50 ppm AI) was 11%. For the same compound, the mortality at 100 ppm [1, 5] was 86%, the mortality at 200 ppm ([1]; w/30% Nachurs 6-24-6, 200 ppm AI) was 96% and the mortality at 400 ppm ([1]; w/30% Nachurs 6-24-6, 400 ppm AI) was 100%. For the same compound, the mortality at 25 ppm (Agrotis ipsilon larvae; no fertilizer, 25 ppm AI) was 38%, the mortality at 100 ppm (Agrotis ipsilon larvae; no fertilizer, 100 ppm AI) was 25% and the mortality at 250 ppm (Agrotis ipsilon larvae; no fertilizer, 250 ppm AI) was 71%. It also gave a mortality at 500 ppm (Agrotis ipsilon larvae; no fertilizer, 500 ppm AI) of 92%, a mortality at 1000 ppm (Agrotis ipsilon larvae; no fertilizer, 1000 ppm AI) of 100% and a mortality at 25 ppm (Agrotis ipsilon larvae; [2]) of 31%. It also gave a mortality at 100 ppm (Agrotis ipsilon larvae; [3]) of 29%, a mortality at 250 ppm (Agrotis ipsilon larvae; w/15% Nachurs 6-24-6, 250 ppm AI) of 79% and a mortality at 500 ppm (Agrotis ipsilon larvae; w/15% Nachurs 6-24-6, 500 ppm AI) of 100%. For the same compound, the mortality at 1000 ppm (Agrotis ipsilon larvae; w/15% Nachurs 6-24-6, 1000 ppm AI) was 100%, the mortality at 25 ppm (Agrotis ipsilon larvae; [4]) was 25% and the mortality at 100 ppm (Agrotis ipsilon larvae; [5]) was 29%. It also gave a mortality at 250 ppm (Agrotis ipsilon larvae; w/30% Nachurs 6-24-6, 250 ppm AI) of 79%, a mortality at 500 ppm (Agrotis ipsilon larvae; w/30% Nachurs 6-24-6, 500 ppm AI) of 96% and a mortality at 1000 ppm (Agrotis ipsilon larvae; w/30% Nachurs 6-24-6, 1000 ppm AI) of 100%.
